SMILES strings stand for the structures. Values joined by “and” are separate entries in the source; they are usually repeats but may differ in a detail not shown here. Identical values can stand only once. A value given as a limit tells only on which side of the number the result lay.

The test has as its system 521955-158-R6-J3-PDC complex spheroid growth, % test/control. Put plainly: Anticancer human tumor 521955-158-R6-J3-PDC patient-derived pancreatic carcinoma cell line growth inhibition [Asc]. As to conditions: for viability, T/C: stronger effect = lower value. Summed up:
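Tumor cells were grown as multicellular spheroids with stromal HUVEC and mesenchymal stem cells and treated singly or in combination. Concentrations fell in half-log steps from the clinical Cmax, or from 10 microM where none was known.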
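Note: spheroids exposed to compounds for 7 days.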
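Throughout, for viability, T/C: 100% = DMSO vehicle control wells.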

By IC50 is commonly meant the concentration that gives 50% inhibition. The viability, T/C is the result in the treated group divided by that in the control group, in per cent. Regarding `O=C(c1cc(Cc2n[nH]c(=O)c3ccccc23)ccc1F)N1CCN(C(=O)C2CC2)CC1` + CNC(C)C(=O)NC1CN(S(=O)(=O)c2cccc(S(=O)(=O)N3CCC4CCC(C(=O)NC(c5ccccc5)c5ccccc5)N4C(=O)C(NC(=O)C(C)NC)C3)c2)CCC2CCC(C(=O)NC(c3ccccc3)c3ccccc3)N2C1=O, the 50% inhibitory concentration (IC50) reads like this: (curve of first compound, second compound 0.00316 µM) above 10 µM; (curve of first compound, second compound 0.01 µM) above 10 µM; (curve of first compound, second compound 0.0316 µM) above 10 µM; (curve of first compound, second compound 0.1 µM) above 10 µM; (curve of first compound, second compound 0.316 µM) above 10 µM; (curve of first compound, second compound 1 µM) above 10 µM. Also, the viability, T/C by setting is: (second compound 0.00316 µM, first compound 0.0316 µM) 159%; (second compound 0.00316 µM, first compound 0.1 µM) 159%; (second compound 0.00316 µM, first compound 0.316 µM) 153%; (second compound 0.00316 µM, first compound 1 µM) 151%; (second compound 0.00316 µM, first compound 3.16 µM) 155%; (second compound 0.00316 µM, first compound 10 µM) 160%. In addition, the viability, T/C (second compound 0.01 µM, first compound 0.0316 µM) is 166%; the viability, T/C (second compound 0.01 µM, first compound 0.1 µM) is 133%; the viability, T/C (second compound 0.01 µM, first compound 0.316 µM) is 148%; the viability, T/C (second compound 0.01 µM, first compound 1 µM) is 153%; the viability, T/C (second compound 0.01 µM, first compound 3.16 µM) was 138%; the viability, T/C (second compound 0.01 µM, first compound 10 µM) was 119%. Moreover, the viability, T/C runs as follows: (second compound 0.0316 µM, first compound 0.0316 µM) 97.5%; (second compound 0.0316 µM, first compound 0.1 µM) 87.8%; (second compound 0.0316 µM, first compound 0.316 µM) 87.7%; (second compound 0.0316 µM, first compound 1 µM) 74.3%; (second compound 0.0316 µM, first compound 3.16 µM) 132%; (second compound 0.0316 µM, first compound 10 µM) 84.9%. In addition, the viability, T/C by setting is: (second compound 0.1 µM, first compound 0.0316 µM) 92%; (second compound 0.1 µM, first compound 0.1 µM) 81.5%; (second compound 0.1 µM, first compound 0.316 µM) 87.4%; (second compound 0.1 µM, first compound 1 µM) 85.8%; (second compound 0.1 µM, first compound 3.16 µM) 138%; (second compound 0.1 µM, first compound 10 µM) 82.3%. The viability, T/C (second compound 0.316 µM, first compound 0.0316 µM) is 92.5%; the viability, T/C (second compound 0.316 µM, first compound 0.1 µM) is 81.5%; the viability, T/C (second compound 0.316 µM, first compound 0.316 µM) is 74.3%; the viability, T/C (second compound 0.316 µM, first compound 1 µM) is 72.7%; the viability, T/C (second compound 0.316 µM, first compound 3.16 µM) is 138%; the viability, T/C (second compound 0.316 µM, first compound 10 µM) is 81.7%. In addition, the viability, T/C is 93.3% (second compound 1 µM, first compound 0.0316 µM); 85.4% (second compound 1 µM, first compound 0.1 µM); 95.1% (second compound 1 µM, first compound 0.316 µM); 89.3% (second compound 1 µM, first compound 1 µM); 138% (second compound 1 µM, first compound 3.16 µM); 80.8% (second compound 1 µM, first compound 10 µM).

On to `CCN1C(C(=O)NC23CCC(C(=O)O)(CC2)CC3)C(c2cccc(Cl)c2F)C2(C(=O)Nc3cc(Cl)ccc32)C12CCCCC2` (stereo unspecified), for which the viability, T/C (compound 0.3 µM) is 109% [middle of 9 runs]. The IC50 was above 3 µM (compound alone, run of 11/07/2022) and above 3 µM (curve of compound).

With `C=C(F)C(=O)N1CCN(c2nc(OCC3CCCN3C)nc3c2CCN(c2cccc4cccc(Cl)c24)C3)CC1CC#N` (stereo unspecified) + CCN1C(C(=O)NC23CCC(C(=O)O)(CC2)CC3)C(c2cccc(Cl)c2F)C2(C(=O)Nc3cc(Cl)ccc32)C12CCCCC2, the IC50 (curve of first compound, second compound 0.00949 µM) was 4.82 µM; the half-maximal inhibitory concentration (IC50) (curve of first compound, second compound 0.03 µM) is 5.19 µM; the IC50 (curve of first compound, second compound 0.0949 µM) worked out at 4.75 µM; the IC50 (curve of first compound, second compound 0.3 µM) worked out at 5.35 µM; the half-inhibitory concentration (IC50) (curve of first compound, second compound 0.949 µM) stood at 5.09 µM; the half-inhibitory concentration (IC50) (curve of first compound, second compound 3 µM) came to 5.58 µM. For the same molecule, the viability, T/C is 107% (second compound 0.00949 µM, first compound 0.0316 µM); 98.7% (second compound 0.00949 µM, first compound 0.1 µM); 102% (second compound 0.00949 µM, first compound 0.316 µM); 95.6% (second compound 0.00949 µM, first compound 1 µM); 79.4% (second compound 0.00949 µM, first compound 3.16 µM); 0.48% (second compound 0.00949 µM, first compound 10 µM). The viability, T/C (second compound 0.03 µM, first compound 0.0316 µM) is 117%; the viability, T/C (second compound 0.03 µM, first compound 0.1 µM) was 108%; the viability, T/C (second compound 0.03 µM, first compound 0.316 µM) was 111%; the viability, T/C (second compound 0.03 µM, first compound 1 µM) was 91.7%; the viability, T/C (second compound 0.03 µM, first compound 3.16 µM) was 90.2%; the viability, T/C (second compound 0.03 µM, first compound 10 µM) is 2.78%. The viability, T/C was 113% (second compound 0.0949 µM, first compound 0.0316 µM); 121% (second compound 0.0949 µM, first compound 0.1 µM); 108% (second compound 0.0949 µM, first compound 0.316 µM); 94% (second compound 0.0949 µM, first compound 1 µM); 81.8% (second compound 0.0949 µM, first compound 3.16 µM); 0.48% (second compound 0.0949 µM, first compound 10 µM). Moreover, the viability, T/C is 109% (second compound 0.3 µM, first compound 0.0316 µM); 97.7% (second compound 0.3 µM, first compound 0.1 µM); 96% (second compound 0.3 µM, first compound 0.316 µM); 92.4% (second compound 0.3 µM, first compound 1 µM); 91.6% (second compound 0.3 µM, first compound 3.16 µM); 0.41% (second compound 0.3 µM, first compound 10 µM). In addition, the viability, T/C runs as follows: (second compound 0.949 µM, first compound 0.0316 µM) 103%; (second compound 0.949 µM, first compound 0.1 µM) 110%; (second compound 0.949 µM, first compound 0.316 µM) 103%; (second compound 0.949 µM, first compound 1 µM) 113%; (second compound 0.949 µM, first compound 3.16 µM) 84.9%; (second compound 0.949 µM, first compound 10 µM) 0.49%. The viability, T/C is 94% (second compound 3 µM, first compound 0.0316 µM); 109% (second compound 3 µM, first compound 0.1 µM); 102% (second compound 3 µM, first compound 0.316 µM); 86.2% (second compound 3 µM, first compound 1 µM); 101% (second compound 3 µM, first compound 3.16 µM); 0.33% (second compound 3 µM, first compound 10 µM).

Regarding `C=CC(=O)N1CCN(c2nc(=O)n(-c3c(C)ccnc3C(C)C)c3nc(-c4c(O)cccc4F)c(F)cc23)C(C)C1` (stereo unspecified), the viability, T/C is, setting by setting: (compound 0.0316 µM) 104% and 94.7% and 96.5%; (compound 0.1 µM) 105% and 107% and 89.4%; (compound 0.316 µM) 95.1% and 92% and 95.3%; (compound 1 µM) 111% and 100% and 122%; (compound 3.16 µM) 112% and 125% and 121%; (compound 10 µM) 93.7% and 124% and 118%. Also, the IC50 (curve of compound) is above 10 µM.

Turning to `O=C(c1ccc(F)c(F)c1Nc1ccc(I)cc1F)N1CC(O)([C@@H]2CCCCN2)C1`, the viability, T/C (compound 0.00316 µM) was 87.6% and 110% and 88.3%; the viability, T/C (compound 0.01 µM) is 116% and 111% and 90.7%; the viability, T/C (compound 0.0316 µM) is 120% and 125% and 79.5%; the viability, T/C (compound 0.1 µM) was 105% and 98.2% and 79%; the viability, T/C (compound 0.316 µM) is 67.9% and 66.9% and 54%; the viability, T/C (compound 1 µM) was 41% and 41.8% and 29.7%. The IC50 (curve of compound) was 0.681 µM and 0.684 µM and 0.396 µM.

Source of the values: PubChem BioAssay AID1963451 (Molecular Pharmacology Branch, DTP, NCI, 2024).
